Source: PubChem BioAssay (NCI)
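Interpolation was linear, between the two tested concentrations surrounding the appropriate level; five concentrations were tested over 48 hours in 96-well plates. At the TGI there is no net growth.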

tested on: MOLT-4 leukemia; experiment: DTP human tumour cell line panel, 48 h

Compound	TGI [µM]
CC1(C)CC(=O)C(/C=N/c2nc(-c3ccccc3)cs2)=C(O)C1	> 100
NC(N)=N/N=C/c1c(-c2cccc([N+](=O)[O-])c2)nc2n1CCS2	29.8
Cn1c(=O)c2[nH]c(CCCCC(=O)O)nc2n(C)c1=O	> 100
N#Cc1nc(C2=C(Cl)c3ccccc3OC2)[nH]c1C#N	40.5
Cc1ccc(-c2c3nc(c(-c4ccc(C)cc4)c4ccc([nH]4)c(-c4ccc(OCC5COC(C)(C)O5)cc4)c4nc(c(-c5ccc(C)cc5)c5ccc2[nH]5)C=C4)C=C3)cc1 (stereo unspecified)	> 31.6
N#Cc1c(-c2ccccc2)cc(Nc2cccc(C(F)(F)F)c2)n2c1nc1ccccc12	41
COc1ccc(CCN2CCN(CCc3ccc(OC)cc3)CC2)cc1	> 100
CCn1c2ccccc2n2c(=O)c3c(c(C#N)c12)CCCC3	> 100
c1ccc(CSP234N5CCN2CCN3CCN4CC5)c(CSP234N5CCN2CCN3CCN4CC5)c1	> 100
Cc1nn(C(=O)Cc2ccccc2)c2c1C(c1ccc(N(C)C)cc1)SC(N)=N2 (stereo unspecified)	> 100
CCOP(=O)(O)C1C(CO)OC(n2ccc(=O)[nH]c2=O)C1O (stereo unspecified)	> 100
NC(=S)Nc1ccc(S(=O)(=O)Nc2ccc(S(N)(=O)=O)cc2)cc1	> 100
O=C1NCCCNCCCNCCCNC(=O)c2cccc1n2	> 100
CSC1=N/C(=C\c2ccccc2)C(=O)N1CN1CCCCC1	> 100
CN(C)/C=N/S(=O)(=O)c1nn2c(C=O)c(-c3ccc(Cl)cc3)nc2s1	2.68
COc1ccc(C2=Nn3c(nnc(Cc4ccc(Cl)cc4)c3=O)SC2)cc1	> 100
COC1(OC)CC(CO)(CNc2nc(N)nc(Cl)c2/C=N\O)C1	85.4
CCOC(=O)C(Cc1cn(S(=O)(=O)c2ccccc2)c2ccccc12)(NC(C)=O)C(=O)OCC	61.4
Cc1ccc2c(c1)C1(C)OC(C=CC1=O)O2 (stereo unspecified)	0.862

tested on: SK-MEL-2 melanoma; experiment: DTP human tumour cell line panel, 48 h

Compound	TGI [µM]
O=c1c2cc(S(=O)(=O)O)ccc2nc(COc2ccc(Oc3ccc(Cl)cc3Cl)cc2)n1-c1ccc(Cl)cc1Oc1c(Cl)cccc1Cl	35.6
C=C(CC[C@@H](C)[C@H]1CC[C@@]2(C)C3=C(CC[C@]12C)[C@@]1(C)CC[C@H](O)[C@@H](C)C1CC3)C(C)C (stereo partly specified)	2.93
CC(=O)OCCOCn1cnc2c(Cl)nc(Cl)nc21	55.6
COc1ccc(N2C(=O)c3cc(C)cnc3S2(=O)=O)cc1	> 100
CC(=O)OC1(C)C=CC(=O)C=C1	98.4
COc1cc(OC)c2c(=O)c(OC)c(-c3ccc4c(c3)OCO4)oc2c1	42.5
CC1(C)CC(=O)C(/C=N/c2nc(-c3ccccc3)cs2)=C(O)C1	> 100
NC(N)=N/N=C/c1c(-c2cccc([N+](=O)[O-])c2)nc2n1CCS2	34
Cn1c(=O)c2[nH]c(CCCCC(=O)O)nc2n(C)c1=O	> 100
O=C1C=CC=C/C1=C1\N=C(c2ccccc2OCC(=O)c2ccc(Br)cc2)SS1	> 100
Cc1ccc(-c2c3nc(c(-c4ccc(C)cc4)c4ccc([nH]4)c(-c4ccc(OCC5COC(C)(C)O5)cc4)c4nc(c(-c5ccc(C)cc5)c5ccc2[nH]5)C=C4)C=C3)cc1 (stereo unspecified)	> 31.6
COc1ccc(CCN2CCN(CCc3ccc(OC)cc3)CC2)cc1	> 100
CCn1c2ccccc2n2c(=O)c3c(c(C#N)c12)CCCC3	> 100
c1ccc(CSP234N5CCN2CCN3CCN4CC5)c(CSP234N5CCN2CCN3CCN4CC5)c1	> 100
O=c1[nH]c(Nc2nc3ccccc3[nH]2)nc2c1CCC2	> 100
CCOP(=O)(O)C1C(CO)OC(n2ccc(=O)[nH]c2=O)C1O (stereo unspecified)	> 100
NC(=S)Nc1ccc(S(=O)(=O)Nc2ccc(S(N)(=O)=O)cc2)cc1	> 100
O=C1NCCCNCCCNCCCNC(=O)c2cccc1n2	> 100
CSC1=N/C(=C\c2ccccc2)C(=O)N1CN1CCCCC1	> 100
CN(C)/C=N/S(=O)(=O)c1nn2c(C=O)c(-c3ccc(Cl)cc3)nc2s1	21.3
COc1ccc(C2=Nn3c(nnc(Cc4ccc(Cl)cc4)c3=O)SC2)cc1	> 100
CCOC(=O)C(Cc1cn(S(=O)(=O)c2ccccc2)c2ccccc12)(NC(C)=O)C(=O)OCC	80.3
Cc1ccc2c(c1)C1(C)OC(C=CC1=O)O2 (stereo unspecified)	5.85

tested on: UACC-257 melanoma; experiment: DTP human tumour cell line panel, 48 h

Compound	TGI [µM]
O=c1c2cc(S(=O)(=O)O)ccc2nc(COc2ccc(Oc3ccc(Cl)cc3Cl)cc2)n1-c1ccc(Cl)cc1Oc1c(Cl)cccc1Cl	86.6
C=C(CC[C@@H](C)[C@H]1CC[C@@]2(C)C3=C(CC[C@]12C)[C@@]1(C)CC[C@H](O)[C@@H](C)C1CC3)C(C)C (stereo partly specified)	2.7
CC(=O)OCCOCn1cnc2c(Cl)nc(Cl)nc21	36.8
O=C1O/C(=C(/Cl)c2cccc3ccccc23)c2ccccc21	> 100
CC(=O)OC1(C)C=CC(=O)C=C1	34.4
COc1cc(OC)c2c(=O)c(OC)c(-c3ccc4c(c3)OCO4)oc2c1	> 100
CC1(C)CC(=O)C(/C=N/c2nc(-c3ccccc3)cs2)=C(O)C1	> 100
NC(N)=N/N=C/c1c(-c2cccc([N+](=O)[O-])c2)nc2n1CCS2	36.1
Cn1c(=O)c2[nH]c(CCCCC(=O)O)nc2n(C)c1=O	> 100
O=C1C=CC=C/C1=C1\N=C(c2ccccc2OCC(=O)c2ccc(Br)cc2)SS1	> 100
Cc1ccc(-c2c3nc(c(-c4ccc(C)cc4)c4ccc([nH]4)c(-c4ccc(OCC5COC(C)(C)O5)cc4)c4nc(c(-c5ccc(C)cc5)c5ccc2[nH]5)C=C4)C=C3)cc1 (stereo unspecified)	> 31.6
N#Cc1c(-c2ccccc2)cc(Nc2cccc(C(F)(F)F)c2)n2c1nc1ccccc12	9.76
COc1ccc(CCN2CCN(CCc3ccc(OC)cc3)CC2)cc1	> 100
CCn1c2ccccc2n2c(=O)c3c(c(C#N)c12)CCCC3	> 100
